Results on five compounds are retold here after the NIST ThermoML archive (doi:10.1016/j.jct.2013.11.028).

± gives the expanded uncertainty stated by the source.

Data set [1] can be described thus: refractive index (Na D-line) (dimensionless). The conditions noted are these: 298.2 K; 101.33 kPa; Liquid; Standard Abbe refractometry.
The conditions of data set [2]: 298.2 K; 101.33 kPa; Liquid; Vibrating tube method.

One may read the refractive index as a measure of how strongly the sample bends light. Turning to `O` [water], in data set [1], the refractive index is 1.3325 ± 0.0008.
By mass density is commonly meant mass per unit of volume. Turning to `CCCC(=O)O` [butanoic acid], the mass density in data set [2] worked out at 952.68 ± 0.23 kg/m3. Besides, in data set [1], the refractive index is recorded as 1.3977 ± 0.0008.
Taken in the same sequence, the figures for `CCCCCO` [pentan-1-ol] were 810.92 ± 0.24 kg/m3 and 1.4073 ± 0.0008.
For the compound `CC(C)CCO` [3-methylbutan-1-ol], the mass density in data set [2] is 809.05 ± 0.4 kg/m3. In addition, the refractive index in data set [1] came to 1.4085 ± 0.0008.
For `CCCCO` [butan-1-ol] the same measures were 805.6 ± 0.24 kg/m3 and 1.3968 ± 0.0008.
